# Results: publication PMC4175002, “The Design and Synthesis of Potent and Selective Inhibitors of Trypanosoma brucei Glycogen Synthase Kinase 3 for the Treatment of Human African Trypanosomiasis” (Journal of Medicinal Chemistry, 2014)
# pEC50, pIC50: −log10 of the molar value.
# Columns and labels:
# [1] = molecular target: HsCDK2/cyclin A (Homo sapiens, UniProt P24941); assay: Radiometric Flashplate potency assay, HsCDK2/cyclin A; format: biochemical; conditions: for ratio HsCDK2/TbGSK3: ratio of IC50 values; for pIC50: average of two or more experiments, 1 μM ATP
# Description: (§1) For compound potency determinations, a radiometric 96-well Flashplate assay (PerkinElmer) was adopted. Compounds were solubilized in DMSO at a top concentration of 3 mM and serially diluted to achieve 10-point titration of final assay concentrations from 30 μM to 0.3 nM with a final DMSO concentration of 1% (v/v). The reaction mixtures contained 1 μM biotinylated GSP2 substrate, 1 μM ATP, 3.7 KBq/well [γ-33P]-ATP and 2.5 nM TbGSK3 in the TbGSK3 kinase assay buffer. GSK3 inhibitors were screened for selectivity assessment also against HsGSK3β. For HsGSK3 assay, the reaction mixes contained 1 μM biotinylated GSP2 substrate, 2 μM ATP, 7.4 KBq/well [γ-33P]-ATP and 15 nM HsGSK3β in the TbGSK3 kinase assay buffer (25 mM Tris-HCl, pH 7.5, 10 mM MgCl2, 5 mM DTT, 0.02% CHAPS, 2 U/mL heparin). For HsCDK2/cyclin A assay, the reaction mixtures contained 1 mM CDK5 biotinylated peptide substrate (Biotin-C6-PKTPKKAKKL), 1 μM ATP, 7.4 KBq/well [γ-^33P]-ATP and 2 nM HsCDK2/cyclin A in the kinase assay buffer (50 mM Tris-HCl, pH 7.5, 10 mM MgCl2, 2 mM DTT, 100 mM NaCl, 0.2 mM EGTA, 0.02% (v/v) Brij35).
# For the HsCDK2 assay, the analysis was performed using two different standards (GW8510 and staurosporine) tested respectively five times in a single run and 19 times in 2 independent runs. This implies that a difference of >0.3 in pIC50 can be considered statistically significant for this assay.
# [2] = molecular target: HsGSK3β (Homo sapiens, UniProt P49841); assay: Radiometric Flashplate potency assay, HsGSK3β; format: biochemical; conditions: for ratio HsGSK3β/TbGSK3: ratio of IC50 values
# Description: as §1
# This implies that a difference of >0.3 in pIC50 can be considered statistically significant for this assay.
# [3] = molecular target: T1, TbGSK3 short (Trypanosoma brucei brucei, UniProt Q388M1); assay: Radiometric 96-well Flashplate potency assay, TbGSK3; format: biochemical; conditions: for TbGSK3 potency relative to 4f: more potent than the unsubstituted phenyl compound 4f; for decrease in potency against TbGSK3: relative to cyclohexane analogue 9c
# T1 sequence (Q388M1 1-352): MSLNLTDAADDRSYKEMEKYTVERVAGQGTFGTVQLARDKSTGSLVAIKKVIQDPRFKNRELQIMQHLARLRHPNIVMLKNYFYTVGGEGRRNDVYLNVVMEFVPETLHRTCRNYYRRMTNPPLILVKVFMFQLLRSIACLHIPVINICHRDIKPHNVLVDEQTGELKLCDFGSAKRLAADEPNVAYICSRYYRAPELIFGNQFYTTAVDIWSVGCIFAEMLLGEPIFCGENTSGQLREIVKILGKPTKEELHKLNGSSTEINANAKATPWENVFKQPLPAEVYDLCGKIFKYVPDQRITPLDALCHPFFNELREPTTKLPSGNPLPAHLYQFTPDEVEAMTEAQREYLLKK
# Description: as §1
# The statistical significance of the compound potency (IC50) was based on the performance of standard molecules which have been tested to a high replication. In the case of TbGSK3 short assay, the standard compound GW8510 was tested 93 times across 9 independent runs. […] The minimum significant ratio (MSR) of 0.4 was evaluated considering the following formula: [drawing 1] where SD is the standard deviation and N the number of replicate values routinely used for the assay (2 in our case).[31] This implies that a difference of >0.4 in pIC50 can be considered statistically significant for this assay.
# [4] = system: bloodstream form T. b. brucei; assay: Trypanosome proliferation assay (resazurin); format: cell-based; conditions: Trypanosoma brucei, 72 h, concentration required to inhibit growth in culture by 50% over 72 h
# Description: (§2) Measurement of inhibition of the proliferation of MRC5 (human lung fibroblast) cells and T. b. brucei bloodstream stage cells was performed using a modification of the cell viability assay previously described.[33] Compounds (50 μM to 0.5 nM) were incubated with 2 × 10^3 cells/well in 0.2 mL of the appropriate culture medium (MEM with 10% fetal bovine serum for MRC5 cells) in clear 96-well plates. Plates were incubated at 37 °C in the presence of 5% CO2 for 69 h. Resazurin was then added to a final concentration of 50 μM, and plates were incubated as above for a further 4 h before being read on a BioTek flx800 fluorescent plate reader.
# [5] = system: MRC5 cells; assay: MRC5 proliferation assay (resazurin); format: cell-based, human; conditions: T. b. brucei versus MRC5 EC50
# Description: as §2
# HsGSK3β, sequence (P49841 whole entry): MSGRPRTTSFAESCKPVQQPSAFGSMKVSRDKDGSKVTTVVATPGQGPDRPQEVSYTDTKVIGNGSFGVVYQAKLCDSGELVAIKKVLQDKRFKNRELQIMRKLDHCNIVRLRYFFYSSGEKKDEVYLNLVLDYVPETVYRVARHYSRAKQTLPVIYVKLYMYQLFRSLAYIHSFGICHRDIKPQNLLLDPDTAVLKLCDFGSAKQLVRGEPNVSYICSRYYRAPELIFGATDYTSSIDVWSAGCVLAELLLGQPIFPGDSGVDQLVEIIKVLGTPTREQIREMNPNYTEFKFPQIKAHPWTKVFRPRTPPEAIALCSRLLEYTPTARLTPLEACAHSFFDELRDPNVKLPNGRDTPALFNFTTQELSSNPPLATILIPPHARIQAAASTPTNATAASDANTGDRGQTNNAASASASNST
smiles,measurement,setting,value
"CO[C@H]1CC[C@H](NC(=O)c2n[nH]cc2NC(=O)c2ccccc2F)CC1 [Compound 4g, 4-(2-Fluorobenzamido)-N-(4-methoxycyclohexyl)-1H-pyrazole-3-carboxamide]",ratio HsCDK2/TbGSK3,[1],<0.7
"CO[C@H]1CC[C@H](NC(=O)c2n[nH]cc2NC(=O)c2ccccc2C(F)(F)F)CC1 [Compound 4h, N-(4-Methoxycyclohexyl)-4-(2-(trifluoromethyl)benzamido)-1H-pyrazole-3-carboxamide]",ratio HsGSK3β/TbGSK3,[2],<0.72
"COc1ccccc1C(=O)Nc1c[nH]nc1C(=O)N[C@H]1CC[C@H](OC)CC1 [Compound 4j, 4-(2-Methoxybenzamido)-N-(4-methoxycyclohexyl)-1H-pyrazole-3-carboxamide]",TbGSK3 potency relative to 4f,[3],approximately 10 fold
same,pEC50,[4],> 6.00
same,ratio HsGSK3β/TbGSK3,[2],<3.3
"CO[C@H]1CC[C@H](NC(=O)c2n[nH]cc2NC(=O)c2ccccc2Nc2ccccc2)CC1 [Compound 4k, N-(4-Methoxycyclohexyl)-4-(2-(phenylamino)benzamido)-1H-pyrazole-3-carboxamide]",pIC50,[1],< 5.00
same,ratio HsCDK2/TbGSK3,[1],>910
"CO[C@H]1CC[C@H](NC(=O)c2n[nH]cc2NC(=O)c2ccccc2Nc2cccc(C)c2C)CC1 [Compound 4l, 4-(2-((2,3-Dimethylphenyl)amino)benzamido)-N-(4-methoxycyclohexyl)-1H-pyrazole-3-carboxamide]",pIC50,[1],< 5.00
same,ratio HsCDK2/TbGSK3,[1],>150
"COc1cc(OC)c(C(=O)Nc2c[nH]nc2C(=O)N[C@H]2CC[C@H](OC)CC2)c(OC)c1 [Compound 4n, N-(4-Methoxycyclohexyl)-4-(2,4,6-trimethoxybenzamido)-1H-pyrazole-3-carboxamide]",selectivity over MRC5 cells,[5],> 9 fold
same,TbGSK3 potency relative to 4f,[3],approximately 10 fold
same,selectivity over HsCDK2,"[1]; TbGSK3 versus HsCDK2, running text",> 1000 fold
same,selectivity over HsGSK3,"[2]; TbGSK3 versus HsGSK3, running text",> 10 fold
"CO[C@H]1CC[C@H](NC(=O)c2n[nH]cc2NC(=O)c2ccc(F)cc2F)CC1 [Compound 4o, 4-(2,4-Difluorobenzamido)-N-(4-methoxycyclohexyl)-1H-pyrazole-3-carboxamide]",ratio HsGSK3β/TbGSK3,[2],<0.09
"CO[C@H]1CC[C@H](NC(=O)c2n[nH]cc2NC(=O)c2cc(F)cc(F)c2)CC1 [Compound 4p, 4-(3,5-Difluorobenzamido)-N-(4-methoxycyclohexyl)-1H-pyrazole-3-carboxamide]",ratio HsGSK3β/TbGSK3,[2],<0.21
"CO[C@H]1CC[C@H](NC(=O)c2n[nH]cc2NC(=O)c2cc(Cl)cc(Cl)c2)CC1 [Compound 4q, 4-(3,5-Dichlorobenzamido)-N-(4-methoxycyclohexyl)-1H-pyrazole-3-carboxamide]",ratio HsGSK3β/TbGSK3,[2],<0.08
"CO[C@H]1CC[C@H](NC(=O)c2n[nH]cc2NC(=O)c2ccc(OC(F)F)cc2)CC1 [Compound 4r, 4-(4-(Difluoromethoxy)benzamido)-N-(4-methoxycyclohexyl)-1H-pyrazole-3-carboxamide]",ratio HsGSK3β/TbGSK3,[2],<0.31
"CO[C@H]1CC[C@H](NC(=O)c2n[nH]cc2NC(=O)c2ccc(N3CCCC3)cc2)CC1 [Compound 4s, N-(4-Methoxycyclohexyl)-4-(4-(pyrrolidin-1-yl)benzamido)-1H-pyrazole-3-carboxamide]",selectivity over MRC5 cells,[5],> 19 fold
same,ratio HsGSK3β/TbGSK3,[2],<0.26
"CO[C@H]1CC[C@H](NC(=O)c2n[nH]cc2NC(=O)c2ccc(N3CCN(C)CC3)cc2)CC1 [Compound 4t, N-(4-Methoxycyclohexyl)-4-(4-(4-methylpiperazin-1-yl)benzamido)-1H-pyrazole-3-carboxamide]",ratio HsGSK3β/TbGSK3,[2],<0.071
"CO[C@H]1CC[C@H](NC(=O)c2n[nH]cc2NC(=O)c2cc3ccccc3o2)CC1 [Compound 4u, 4-(Benzofuran-2-carboxamido)-N-(4-methoxycyclohexyl)-1H-pyrazole-3-carboxamide]",ratio HsGSK3β/TbGSK3,[2],<0.38
"CO[C@H]1CC[C@H](NC(=O)c2n[nH]cc2NC(=O)c2cc3ccccn3n2)CC1 [Compound 4v, N-(3-((4-Methoxycyclohexyl)carbamoyl)-1H-pyrazol-4-yl)pyrazolo[1,5-a]pyridine-2-carboxamide]",ratio HsGSK3β/TbGSK3,[2],<0.080
"CO[C@H]1CC[C@H](NC(=O)c2n[nH]cc2NC(=O)c2cnc3ccccn23)CC1 [Compound 4w, N-(3-((4-Methoxycyclohexyl)carbamoyl)-1H-pyrazol-4-yl)imidazo[1,2-a]pyridine-3-carboxamide]",ratio HsGSK3β/TbGSK3,[2],<0.053
"CO[C@H]1CC[C@H](NC(=O)c2n[nH]cc2NC(=O)c2c(C)nc3ccccn23)CC1 [Compound 4x, N-(3-((4-Methoxycyclohexyl)carbamoyl)-1H-pyrazol-4-yl)-2-methylimidazo[1,2-a]pyridine-3-carboxamide]",selectivity over MRC5 cells,[5],12 fold
"COc1cccc(OC)c1C(=O)Nc1c[nH]nc1C(=O)NC1CC1 [Compound 9a, N-Cyclopropyl-4-(2,6-dimethoxybenzamido)-1H-pyrazole-3-carboxamide]",ratio HsCDK2/TbGSK3,[1],>830
"COc1cccc(OC)c1C(=O)Nc1c[nH]nc1C(=O)NC1CCCCC1 [Compound 9c, N-Cyclohexyl-4-(2,6-dimethoxybenzamido)-1H-pyrazole-3-carboxamide]",selectivity over MRC5 cells,[5],> 7 fold
"COc1cccc(OC)c1C(=O)Nc1c[nH]nc1C(=O)NC1CCCCCC1 [Compound 9d, N-Cycloheptyl-4-(2,6-dimethoxybenzamido)-1H-pyrazole-3-carboxamide]",selectivity over MRC5 cells,[5],> 7 fold
"COc1cccc(OC)c1C(=O)Nc1c[nH]nc1C(=O)Nc1ccccc1 [Compound 9k, 4-(2,6-Dimethoxybenzamido)-N-phenyl-1H-pyrazole-3-carboxamide]",decrease in potency against TbGSK3,[3],6 fold
"COc1cccc(OC)c1C(=O)Nc1c[nH]nc1C(=O)Nc1ccncc1 [Compound 9l, 4-(2,6-Dimethoxybenzamido)-N-(pyridin-4-yl)-1H-pyrazole-3-carboxamide]",decrease in potency against TbGSK3,[3],6 fold
"COc1cccc(OC)c1C(=O)Nc1c[nH]nc1C(=O)Nc1ccccn1 [Compound 9m, 4-(2,6-Dimethoxybenzamido)-N-(pyridin-2-yl)-1H-pyrazole-3-carboxamide]",loss of activity against TbGSK3,"[3]; 2-pyridine analogue much less active, comparator not stated clearly (9c or 9k/9l)",50 fold
"CCCCCNC(=O)c1n[nH]cc1NC(=O)c1c(OC)cccc1OC [Compound 9s, 4-(2,6-Dimethoxybenzamido)-N-pentyl-1H-pyrazole-3-carboxamide]",selectivity over MRC5 cells,[5],> 7 fold
same,ratio HsGSK3β/TbGSK3,[2],100
"COc1cccc(OC)c1C(=O)Nc1c[nH]nc1C(=O)NCCCOC(C)C [Compound 9t, 4-(2,6-Dimethoxybenzamido)-N-(3-isopropoxypropyl)-1H-pyrazole-3-carboxamide]",selectivity over MRC5 cells,[5],> 7 fold
COc1cccc(OC)c1C(=O)Nc1c[nH]nc1C(=O)N[C@H]1CC[C@H](OC)CC1 [Compound 9x],ratio HsGSK3β/TbGSK3,[2],<2.5
"O=C1Nc2ccc3ncsc3c2/C1=C/Nc1ccc(S(=O)(=O)Nc2ccccn2)cc1 [GW8510, reference compound]",average pIC50 TbGSK3 short assay,"[3]; standard compound tested 93 times across 9 independent runs, SD 0.23",8.26
same,average pIC50 HsGSK3 assay,"[2]; standard compound tested 47 times across 5 independent runs, SD 0.21",8.10
